Measurements as given in patent publication US20140243326A1, “Synergistic Insecticidal Mixtures” (priority 2003, published 2014).
Values joined by “and” are separate entries in the source; they are usually repeats but may differ in a detail not shown here. Identical values can stand only once.

Tests used:
[1] = system: Phaedon cochleariae larvae; assay: Phaedon cochleariae larvae test (cabbage leaf dip); format: in vivo, mustard beetle (Phaedon cochleariae); conditions: 4 ppm, single active ingredient
Text: (§1) The expected effect for a given combination of two active ingredients can be calculated (cf. Colby, S. R., “Calculating Synergistic and Antagonistic Responses of Herbicide Combinations”, Weeds, 15, pp. 20-22, 1967).
(§2) If • X=the kill rate, expressed in % of the untreated control, while using active ingredient A in an application amount of m ppm, • Y=the kill rate, expressed in % of the untreated control, while using active ingredient B in an application amount of n ppm, • E=the kill rate, expressed in % of die untreated control, while using active ingredient A and B in application amounts of m and n ppm, then
(§3) If the actual kill rate is higher than calculated rate, the combination's kill rate is superadditive, i.e., it has a synergistic effect. In this case, the actually observed kill rate must be higher than the value calculated using the above formula for the expected kill rate (E).
(§4) Solvent: 7 parts per weight dimethyl formamide Emulsifiers: 2 parts by weight alkylaryl polyglycol ether
To manufacture one of the appropriate active ingredient preparations, mix 1 part by weight of the active ingredient with the indicated amount of solvent and emulsifier and dilute the concentrate with emulsifier-containing water to the desired concentration.
Cabbage leaves (Brassica oleracea) are treated by being dipped into the active ingredient preparation at the desired concentration and infested with larvae of the mustard beetle (Phaedon cochleariae) while the leaves are still damp.
After the desired time, determine the % that have been killed off. For this purpose 100% means that all the beetle larvae on the leaves were killed; 0% means that no beetle larvae were killed. Calculate the determined kill values using Colby's formula.

Myzus persicae = Myzus persicae test (cabbage leaf dip); format: in vivo, green peach aphid (Myzus persicae); conditions: single active ingredient
Text: as §1, §2, §3, §4
(§5) To prepare one of the appropriate active ingredient preparations, mix 1 part by weight of the active ingredient with the indicated amount of solvent and emulsifier and dilute the concentrate with emulsifier-containing water to the desired concentration.
Cabbage leaves (Brassica oleracea) that have been highly infested with the green peach aphid (Myzus persicae) are treated by being dipped into the active ingredient preparation at the desired concentration.
After the desired time, determine the % that have been killed off. For these purposes, 100% means that all the aphids on the leaves were killed; 0% means that no aphids were killed. Calculate the determined kill values using Colby's formula.

[2] = system: Plutella xylostella, resistant strain; assay: Plutella xylostella test, resistant strain (cabbage leaf dip); format: in vivo, diamondback moth (Plutella xylostella; conditions: 100 ppm, single active ingredient
Text: as §1, §2, §3
Solvent: 7 parts per weight dimethyl formamide Emulsifier: 2 parts by weight alkylaryl polyglycol ether
as §5
Cabbage leaves (Brassica oleracea) are treated by being dipped into the active ingredient preparation at the desired concentration and infested with diamondback moth grubs (Plutella xylostella, resistant strain) while the leaves are still damp.
After the desired time, determine the % that have been killed off. For these purposes 100% means that all the grubs on the leaves were killed; 0% means that no grubs were killed. Calculate the determined kill rate values using Colby's formula.

SMILES | Kill rate in % after 6d [1] | Kill rate in % after 6d (Myzus persicae; 0.8 ppm) | Kill rate in % after 6d [2] | Dead in % after 6d (Myzus persicae; 20 ppm) | Kill rate in % after 6d (Myzus persicae; 20 ppm) | Dead in % after 6d (Myzus persicae; 0.8 ppm)
O=[N+]([O-])NC1=NCCN1Cc1ccc(Cl)nc1 [imidacloprid] | 45% |  |  |  |  | 
CN1COCN(Cc2cnc(Cl)s2)/C1=N/[N+](=O)[O-] [thiamethoxam] | 25% | 85% | 75% |  |  | 
CS/C(C)=N\OC(=O)N(C)SN(C)C(=O)O/N=C(\C)SC [thiodicarb] |  |  | 15% and 5% | 0% | 0% | 
CN/C(=N\[N+](=O)[O-])NCc1cnc(Cl)s1 [clothianidin] | 75% |  |  |  |  | 
N#C/N=C1\SCCN1Cc1ccc(Cl)nc1 [thiacloprid] | 0% |  | 45% |  |  | 30%
